This assay has as its target T1, ALK (baculovirus expressed human ALK kinase domain F1098-K1410) (Homo sapiens, UniProt Q9UM73).
T1 construct: human ALK kinase domain F1098-K1410; made in house
As to the kind of experiment: biochemical. Conditions: 1 μM ATP, 4 μM poly-AEKY, 12 nM ALK, 2 hours at ambient temperature; read-out: ALK IC50. The procedure:
Kinase activity and compound inhibition are investigated using one or more of the three assay formats described below. The ATP concentrations for each assay are selected to be close to the Michaelis-Menten constant (KM) for each individual kinase. Dose-response experiments are performed at 10 different inhibitor concentrations in a 384-well plate format. […] Y=Min+(Max−Min)/(1+(X/IC50)^H) Equation (2) Luciferase-Coupled Chemiluminescent Kinase Assay
ALK biochemical activity was assessed using a Luciferase-Coupled Chemiluminescent Kinase assay (LCCA) format in which kinase activity was measured as the percent ATP remaining following the kinase reaction. ATP remaining after the kinase reaction was detected by luciferase-luciferin-coupled chemiluminescence. […] The mixture was incubated at ambient temperature for 2 hours after which 20 μL luciferase-luciferin mix was added and the chemiluminescent signal read using a Wallac Victor^2 reader. […] Consumption of ATP by ALK can be quantified and utilized as a measure of inhibition of ALK activity by compounds described herein. By employing serial dilutions of compounds to be tested, the ability of test compounds to inhibit ALK activity can be determined.
T1 sequence (Q9UM73 1098-1410): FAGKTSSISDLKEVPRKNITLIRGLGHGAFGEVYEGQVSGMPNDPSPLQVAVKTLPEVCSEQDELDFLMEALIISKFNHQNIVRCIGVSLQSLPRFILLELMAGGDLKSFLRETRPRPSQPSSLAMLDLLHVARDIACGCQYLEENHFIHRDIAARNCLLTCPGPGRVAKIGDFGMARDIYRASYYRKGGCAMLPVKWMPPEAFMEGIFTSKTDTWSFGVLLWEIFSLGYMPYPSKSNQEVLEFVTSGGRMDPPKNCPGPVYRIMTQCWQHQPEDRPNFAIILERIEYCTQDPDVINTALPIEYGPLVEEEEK
What is called IC50 is the concentration needed to halve the response being measured. Consider `O=C(COc1ccc(OC(F)(F)F)cc1)NCc1nc(C(=O)N2CC[C@@H]3CCCC[C@@H]3C2)cs1` [Entry 271, N-({4-[(4aS,8aS)-octahydroisoquinolin-2(1H)-ylcarbonyl]-1,3-thiazol-2-yl}methyl)-2-({4-[(trifluoromethyl)oxy]phenyl}oxy)acetamide], for which the IC50 fell in the range of 0.5 to 2 µM.
As for `O=C(COc1ccc(OC(F)(F)F)cc1)NCc1nc(C(=O)NC2CCCc3ccccc32)co1` (centres unmarked) [Entry 293, N-(1,2,3,4-tetrahydronaphthalen-1-yl)-2-({[({4-[(trifluoromethyl)oxy]phenyl}oxy)acetyl]amino}methyl)-1,3-oxazole-4-carboxamide], the concentration for half-maximal inhibition (IC50) was in the range of 0.5 to 2 µM.
Take `Cc1cc(Cl)ccc1CNC(=O)c1csc(CNC(=O)COc2ccc(OC(F)(F)F)cc2)n1` [Entry 150, N-[(4-chloro-2-methylphenyl)methyl]-2-({[({4-[(trifluoromethyl)oxy]phenyl}oxy)acetyl]amino}methyl)-1,3-thiazole-4-carboxamide]: the IC50 was in the range of 0.05 to 0.5 µM.
As for `NCc1nc(C(=O)NCCc2cccc(Cl)c2)co1` [Entry 307, 2-(aminomethyl)-N-[2-(3-chlorophenyl)ethyl]-1,3-oxazole-4-carboxamide], the half-maximal inhibitory concentration (IC50) was over 2 µM.
With `O=C(COc1ccc(OC(F)(F)F)cc1)NCc1nc(C(=O)NC(c2ccccc2)c2ccccc2)cs1` [Entry 167, N-(diphenylmethyl)-2-({[({4-[(trifluoromethyl)oxy]phenyl}oxy)acetyl]amino}methyl)-1,3-thiazole-4-carboxamide], the IC50 is 0.05 to 0.5 µM.
Regarding `CCOc1cc(CCNC(=O)c2coc(CNC(=O)COc3ccc(OC(F)(F)F)cc3)n2)ccc1OC` [Entry 250, N-{2-[3-(ethyloxy)-4-(methyloxy)phenyl]ethyl}-2-({[({4-[(trifluoromethyl)oxy]phenyl}oxy)acetyl]amino}methyl)-1,3-oxazole-4-carboxamide], the IC50 lay within 0.5 to 2 µM.
In the case of `CC(NC(=O)c1csc(CNC(=O)COc2ccc(OC(F)(F)F)cc2)n1)c1ccccc1` (centres unmarked) [Entry 108, N-(1-phenylethyl)-2-({[({4-[(trifluoromethyl)oxy]phenyl}oxy)acetyl]amino}methyl)-1,3-thiazole-4-carboxamide], the IC50 fell in the range of 0.05 to 0.5 µM.
In the case of `CCc1ccc(OCC(=O)NCc2nc(C(=O)NCCc3cccc(Cl)c3)cs2)cc1` [Entry 111, N-[2-(3-chlorophenyl)ethyl]-2-[({[(4-ethylphenyl)oxy]acetyl}amino)methyl]-1,3-thiazole-4-carboxamide] it was 0.05 to 0.5 µM.
For the compound `O=C(COc1ccc(OC(F)(F)F)cc1)NCc1nc(C(=O)NCc2ccc(F)cc2C(F)(F)F)cs1` [Entry 244, N-{[4-fluoro-2-(trifluoromethyl)phenyl]methyl}-2-({[({4-[(trifluoromethyl)oxy]phenyl}oxy)acetyl]amino}methyl)-1,3-thiazole-4-carboxamide], the IC50 was in the range of 0.5 to 2 µM.
Consider `CCc1ccc(NC(=O)NCc2nc(C(=O)NCCc3cccc(Cl)c3)cs2)cc1` [Entry 8, N-[2-(3-chlorophenyl)ethyl]-2-[({[(4-ethylphenyl)amino]carbonyl}amino)methyl]-1,3-thiazole-4-carboxamide], for which the IC50 is under 0.05 µM.
For `O=C(COc1ccc(OC(F)(F)F)cc1)NCc1nc(C(=O)NCc2ccccc2)cs1` [Entry 194, N-(phenylmethyl)-2-({[({4-[(trifluoromethyl)oxy]phenyl}oxy)acetyl]amino}methyl)-1,3-thiazole-4-carboxamide], the IC50 lay in the range of 0.05 to 0.5 µM.
For `COc1cccc(CNC(=O)c2csc(CNC(=O)COc3ccc(C(C)C)cc3)n2)c1OC` [Entry 125, N-{[2,3-bis(methyloxy)phenyl]methyl}-2-{[({[4-(1-methylethyl)phenyl]oxy}acetyl)amino]methyl}-1,3-thiazole-4-carboxamide], the IC50 was 0.05 to 0.5 µM.
On to `C[C@H](CNC(=O)c1coc(CNC(=O)COc2ccc(OC(F)(F)F)cc2)n1)c1ccccc1` [Entry 240, N-[(2S)-2-phenylpropyl]-2-({[({4-[(trifluoromethyl)oxy]phenyl}oxy)acetyl]amino}methyl)-1,3-oxazole-4-carboxamide], for which the IC50 is 0.5 to 2 µM.
Consider `CCN(CCNC(=O)c1csc(CNC(=O)COc2ccc(OC(F)(F)F)cc2)n1)c1cccc(C)c1` [Entry 124, N-{2-[ethyl(3-methylphenyl)amino]ethyl}-2-({[({4-[(trifluoromethyl)oxy]phenyl}oxy)acetyl]amino}methyl)-1,3-thiazole-4-carboxamide], for which the IC50 is 0.05 to 0.5 µM.
For the compound `O=C(COc1ccc(OC(F)(F)F)cc1)NCc1nc(C(=O)NCCN2CCCCC2)cs1` [Entry 290, N-(2-piperidin-1-ylethyl)-2-({[({4-[(trifluoromethyl)oxy]phenyl}oxy)acetyl]amino}methyl)-1,3-thiazole-4-carboxamide], the IC50 was 0.5 to 2 µM.
Consider `O=C(COc1ccc(OC(F)(F)F)cc1)NCc1nc(C(=O)NCc2cc(C(F)(F)F)ccc2Cl)cs1` [Entry 97, N-{[2-chloro-5-(trifluoromethyl)phenyl]methyl}-2-({[({4-[(trifluoromethyl)oxy]phenyl}oxy)acetyl]amino}methyl)-1,3-thiazole-4-carboxamide], for which the IC50 was 0.05 to 0.5 µM.
For the compound `O=C(COc1ccc(OC(F)(F)F)cc1)NCc1nc(C(=O)NCC2CCCO2)cs1` (centres unmarked) [Entry 265, N-(tetrahydrofuran-2-ylmethyl)-2-({[({4-[(trifluoromethyl)oxy]phenyl}oxy)acetyl]amino}methyl)-1,3-thiazole-4-carboxamide], the IC50 lay within 0.5 to 2 µM.
Regarding `CC(C)(C)OC(=O)NC1CCN(C(=O)c2csc(CNC(=O)COc3ccc(OC(F)(F)F)cc3)n2)C1` (centres unmarked) [Entry 278, 1,1-dimethylethyl (1-{[2-({[({4-[(trifluoromethyl)oxy]phenyl}oxy)acetyl]amino}methyl)-1,3-thiazol-4-yl]carbonyl}pyrrolidin-3-yl)carbamate], the concentration for half-maximal inhibition (IC50) lay within 0.5 to 2 µM.
Turning to `CCCCCCN(CCC#N)C(=O)c1csc(CNC(=O)COc2ccc(OC(F)(F)F)cc2)n1` [Entry 238, N-(2-cyanoethyl)-N-hexyl-2-({[({4-[(trifluoromethyl)oxy]phenyl}oxy)acetyl]amino}methyl)-1,3-thiazole-4-carboxamide], the IC50 is 0.5 to 2 µM.
For the compound `O=C(COc1ccc(OC(F)(F)F)cc1)NCc1nc(C(=O)NCC(c2ccccc2)c2ccccc2)cs1` [Entry 18, N-(2,2-diphenylethyl)-2-({[({4-[(trifluoromethyl)oxy]phenyl}oxy)acetyl]amino}methyl)-1,3-thiazole-4-carboxamide], the IC50 was under 0.05 µM.
`Cc1ccc(Cl)cc1CNC(=O)c1csc(CNC(=O)COc2ccc(OC(F)(F)F)cc2)n1` [Entry 39, N-[(5-chloro-2-methylphenyl)methyl]-2-({[({4-[(trifluoromethyl)oxy]phenyl}oxy)acetyl]amino}methyl)-1,3-thiazole-4-carboxamide]: the IC50 is 0.05 to 0.5 µM.
In the case of `C[C@@H](CNC(=O)c1csc(CNC(=O)COc2ccc(OC(F)(F)F)cc2)n1)c1ccccc1` [Entry 6, N-[(2R)-2-phenylpropyl]-2-({[({4-[(trifluoromethyl)oxy]phenyl}oxy)acetyl]amino}methyl)-1,3-thiazole-4-carboxamide], the half-maximal inhibitory concentration (IC50) is under 0.05 µM.
For `O=C(COc1ccc(OC(F)(F)F)cc1)NCc1nc(C(=O)NCc2ccccc2OC(F)(F)F)cs1` [Entry 57, N-({2-[(trifluoromethyl)oxy]phenyl}methyl)-2-({[({4-[(trifluoromethyl)oxy]phenyl}oxy)acetyl]amino}methyl)-1,3-thiazole-4-carboxamide], the IC50 was in the range of 0.05 to 0.5 µM.
Next, `O=C(COc1ccc(OC(F)(F)F)cc1)NCc1nc(C(=O)NCc2cc(F)cc(F)c2)cs1` [Entry 126, N-[(3,5-difluorophenyl)methyl]-2-({[({4-[(trifluoromethyl)oxy]phenyl}oxy)acetyl]amino}methyl)-1,3-thiazole-4-carboxamide]: 0.05 to 0.5 µM; `NS(=O)(=O)c1ccc(CCNC(=O)c2coc(CNC(=O)COc3ccc(OC(F)(F)F)cc3)n2)cc1` [Entry 92, N-{2-[4-(aminosulfonyl)phenyl]ethyl}-2-({[({4-[(trifluoromethyl)oxy]phenyl}oxy)acetyl]amino}methyl)-1,3-oxazole-4-carboxamide]: 0.05 to 0.5 µM; `COc1ccc(CCNC(=O)c2coc(CNC(=O)COc3ccc(OC(F)(F)F)cc3)n2)cc1OC` [Entry 155, N-{2-[3,4-bis(methyloxy)phenyl]ethyl}-2-({[({4-[(trifluoromethyl)oxy]phenyl}oxy)acetyl]amino}methyl)-1,3-oxazole-4-carboxamide]: 0.05 to 0.5 µM.
In the case of `O=C(COc1ccc(OC(F)(F)F)cc1)NCc1nc(C(=O)NC2CCc3ccccc32)cs1` (centres unmarked) [Entry 182, N-(2,3-dihydro-1H-inden-1-yl)-2-({[({4-[(trifluoromethyl)oxy]phenyl}oxy)acetyl]amino}methyl)-1,3-thiazole-4-carboxamide] it was 0.05 to 0.5 µM; in that of `COc1ccccc1CNC(=O)c1csc(CNC(=O)Cc2ccc3ccccc3c2)n1` [Entry 229, N-{[2-(methyloxy)phenyl]methyl}-2-{[(naphthalen-2-ylacetyl)amino]methyl}-1,3-thiazole-4-carboxamide], 0.5 to 2 µM; in that of `O=C(COc1ccc(OC(F)(F)F)cc1)NCc1nc(C(=O)NCCc2cccc(C(F)(F)F)c2)cs1` [Entry 52, 2-({[({4-[(trifluoromethyl)oxy]phenyl}oxy)acetyl]amino}methyl)-N-{2-[3-(trifluoromethyl)phenyl]ethyl}-1,3-thiazole-4-carboxamide], 0.05 to 0.5 µM.

These data come from patent US7973061B2, “Anaplastic lymphoma kinase modulators and methods of use” (Exelixis, Inc., priority 2004, dated 2011).
